Experimental findings from ChEMBL document CHEMBL4041483, “Aldgamycins J-O, 16-Membered Macrolides with a Branched Octose Unit from Streptomycetes sp. and Their Antibacterial Activities” (2016) are described below.

Values after ≈ are worked out from the molar mass of the structure shown.

Holding throughout (type): functional
In assay [1] the test system is Aspergillus niger. The assay can be described thus: Antifungal activity against Aspergillus niger R330 incubated at room temperature for 30 mins followed by incubation at 32 degC for 12 hrs by two-fold dilution method.
Assay [2] deals with Escherichia coli. The assay can be described thus: Antibacterial activity against Escherichia coli ATCC 0111 incubated at room temperature for 30 mins followed by incubation at 37 degC for 12 hrs by two-fold dilution method.
Assay [3] has as its system Candida albicans. Kind of assay: Antifungal activity against Candida albicans FIM709 incubated at room temperature for 30 mins followed by incubation at 32 degC for 12 hrs by two-fold dilution method.
Assay [4] has as its system Staphylococcus aureus. Kind of assay: Antibacterial activity against Staphylococcus aureus 209P incubated at room temperature for 30 mins followed by incubation at 37 degC for 12 hrs by two-fold dilution method.

Take `CO[C@@H]1[C@H](O)[C@@H](C)O[C@@H](OC[C@H]2/C=C/C=C/C(=O)[C@@](C)(O)C[C@H](C)[C@H](O[C@@H]3O[C@H](C)C[C@](O)([C@H](C)O)[C@H]3O)[C@@H](C)/C=C/C(=O)O[C@@H]2C)[C@@H]1OC`: the MIC in assay [1] was above 500 µg/mL; in assay [2] it was above 500 µg/mL; in assay [3], above 500 µg/mL; in assay [4] it was 16 µg/mL (≈ 22.4 µM).
As for `C[C@@H]1C[C@@H]([C@H](O)CC2CC(=O)NC(=O)C2)C(=O)[C@@H](C)C1` [CYCLOHEXIMIDE], the MIC was determined as 32 µg/mL (≈ 114 µM) in assay [1] and 64 µg/mL (≈ 227 µM) in assay [3].
In the case of `CO[C@@H]1[C@H](O)[C@@H](C)O[C@@H](OC[C@H]2/C=C/C=C/C(=O)[C@H](C)C[C@H](C)[C@H](O[C@@H]3O[C@H](C)C[C@](O)([C@H](C)O)[C@H]3O)[C@@H](C)/C=C/C(=O)O[C@@H]2C)[C@@H]1OC`, the MIC was above 1000 µg/mL in assay [1], above 1000 µg/mL in assay [2], above 1000 µg/mL in assay [3] and 125 µg/mL (≈ 179 µM) in assay [4].
Turning to `CO[C@@H]1[C@H](O)[C@@H](C)O[C@@H](OC[C@H]2/C=C/CCC(=O)[C@@](C)(O)C[C@H](C)[C@H](O[C@@H]3O[C@H](C)C[C@](O)([C@H](C)O)[C@H]3O)[C@@H](C)/C=C/C(=O)O[C@@H]2C)[C@@H]1OC`, the MIC in assay [1] was above 500 µg/mL; in assay [2], above 500 µg/mL; in assay [3], above 500 µg/mL; in assay [4] it was 32 µg/mL (≈ 44.6 µM).
For `CO[C@@H]1[C@H](O)[C@@H](C)O[C@@H](OC[C@H]2/C=C/CCC(=O)[C@H](C)C[C@H](C)[C@H](O[C@@H]3O[C@H](C)C[C@](O)([C@H](C)O)[C@H]3O)[C@@H](C)/C=C/C(=O)O[C@@H]2C)[C@@H]1OC`, the MIC in assay [1] is above 500 µg/mL; in assay [2], above 500 µg/mL; in assay [3] it was above 500 µg/mL; in assay [4], 500 µg/mL (≈ 713 µM).
Turning to `NC[C@H]1O[C@H](O[C@H]2[C@H](O)[C@@H](O[C@H]3O[C@H](CO)[C@@H](O)[C@H](N)[C@H]3O)[C@H](N)C[C@@H]2N)[C@H](N)C[C@@H]1O` [TOBRAMYCIN], the results for the MIC in assay [2] and in assay [4] were 2 µg/mL (≈ 4.28 µM) and 0.2 µg/mL (≈ 0.428 µM), respectively.
For `CO[C@@H]1[C@H](O)[C@@H](C)O[C@@H](OC[C@H]2[C@@H]3O[C@H]3/C=C/C(=O)[C@@](C)(O)C[C@H](C)[C@H](O[C@@H]3O[C@H](C)C[C@H](OC)[C@H]3O)[C@@H](C)/C=C/C(=O)O[C@@H]2C)[C@@H]1OC`, the MIC in assay [1] was above 500 µg/mL; in assay [2] it was above 500 µg/mL; in assay [3] it was above 500 µg/mL; in assay [4], 4 µg/mL (≈ 5.71 µM).
Regarding `CO[C@@H]1[C@H](O)[C@@H](C)O[C@@H](OC[C@H]2[C@@H]3O[C@H]3CCC(=O)[C@@](C)(O)C[C@H](C)[C@H](O[C@@H]3O[C@H](C)C[C@](O)([C@H](C)O)[C@H]3O)[C@@H](C)/C=C/C(=O)O[C@@H]2C)[C@@H]1OC`, the MIC in assay [1] is above 1000 µg/mL; in assay [2], above 1000 µg/mL; in assay [3], above 1000 µg/mL; in assay [4], 500 µg/mL (≈ 682 µM).
Turning to `CO[C@@H]1[C@H](O)[C@@H](C)O[C@@H](OC[C@H]2[C@@H]3O[C@H]3CCC(=O)[C@H](C)C[C@H](C)[C@H](O[C@@H]3O[C@H](C)C[C@](O)([C@H](C)O)[C@H]3O)[C@@H](C)/C=C/C(=O)O[C@@H]2C)[C@@H]1OC`, the MIC in assay [1], in assay [2], in assay [3] and in assay [4] was above 1000 µg/mL in each case.
`CO[C@@H]1[C@H](O)[C@@H](C)O[C@@H](OC[C@H]2/C=C/CCC(=O)[C@H](C)C[C@H](C)[C@H](O[C@@H]3O[C@H](C)C[C@@]4(OC(=O)O[C@H]4C)[C@H]3O)[C@@H](C)/C=C/C(=O)O[C@@H]2C)[C@@H]1OC`: the MIC in assay [1] is above 500 µg/mL; in assay [2], above 500 µg/mL; in assay [3], above 500 µg/mL; in assay [4] it was 32 µg/mL (≈ 44 µM).
